Measurements from patent publication US20230086703A1, “N-(4-(5-chloropyridin-3-yl)phenyl)-2-(2-(cyclopropanesulfonamido)pyrimidin-4-yl) butanamide derivatives and related compounds as human CTPS1 inhibitors for the treatment of proliferative diseases” (Step Pharma S.A.S., priority 2019, published 2023).

Molecular target: T1, human CTPS1 (Homo sapiens, UniProt P17812)
T1 construct: FLAG (with GG linker); His8 (with GG linker); purchased Proteros biostructures GmbH
T1 sequence (P17812 1-591): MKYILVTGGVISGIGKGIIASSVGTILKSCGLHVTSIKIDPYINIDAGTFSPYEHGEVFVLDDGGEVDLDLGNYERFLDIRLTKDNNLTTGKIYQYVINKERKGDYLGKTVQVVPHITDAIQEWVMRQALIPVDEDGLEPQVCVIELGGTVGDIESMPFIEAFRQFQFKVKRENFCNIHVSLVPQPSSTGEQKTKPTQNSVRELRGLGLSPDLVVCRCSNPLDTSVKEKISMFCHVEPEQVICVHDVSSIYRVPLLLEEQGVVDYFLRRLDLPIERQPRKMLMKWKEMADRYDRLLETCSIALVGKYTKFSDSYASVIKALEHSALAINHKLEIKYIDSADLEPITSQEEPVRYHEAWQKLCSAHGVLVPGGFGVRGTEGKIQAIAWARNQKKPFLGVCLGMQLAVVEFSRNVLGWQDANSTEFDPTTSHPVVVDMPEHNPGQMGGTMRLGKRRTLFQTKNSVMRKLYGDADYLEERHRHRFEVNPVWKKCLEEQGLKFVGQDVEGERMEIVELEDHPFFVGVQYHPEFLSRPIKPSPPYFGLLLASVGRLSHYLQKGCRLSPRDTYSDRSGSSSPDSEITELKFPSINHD
Experiment: Human CTPS1 enzyme inhibition, ADP-Glo Max assay
Type: biochemical
Details: ADP-Glo Max assay; Table 10; read-out: Human CTPS1 Enzyme Inhibition, IC50 grouped by potency range (CTPS1)
Summary of the method: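 Enzyme preincubated with compound for 10 min at 25 °C in 50 mM Tris pH 8.0, 10 mM MgCl2, 0.01% Tween-20, 2 mM L-cysteine. ATP-to-ADP conversion detected by ADP-Glo Max luminescence after 60 min depletion and 60 min development steps. Percentage inhibition calculated per concentration.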

CC(C)(C(=O)Nc1ncc(-c2cncc(F)c2)cc1F)c1csc(NS(=O)(=O)C2CC2)n1 [T230, 2-(2-(cyclopropanesulfonamido)thiazol-4-yl)-N-(5,5′-difluoro-[3,3′-bipyridin]-6-yl)-2-methylpropanamide]
IC50: < 100 nM

Cc1cc(Cl)cc(-c2ccc(NC(=O)C(C)(C)c3csc(NS(=O)(=O)C4CC4)n3)nc2)c1 [T231, N-(5-(3-chloro-5-methylphenyl)pyridin-2-yl)-2-(2-(cyclopropanesulfonamido)thiazol-4-yl)-2-methylpropanamide]
IC50: 1000 to 10000 nM

COc1cccc(-c2ccc(NC(=O)C(C)(C)c3csc(NS(=O)(=O)C4CC4)n3)nc2)c1 [T232, 2-(2-(cyclopropanesulfonamido)thiazol-4-yl)-N-(5-(3-methoxyphenyl)pyridin-2-yl)-2-methylpropanamide]
IC50: 100 to 1000 nM

COc1cc(F)cc(-c2ccc(NC(=O)C(C)(C)c3csc(NS(=O)(=O)C4CC4)n3)nc2)c1 [T233, 2-(2-(cyclopropanesulfonamido)thiazol-4-yl)-N-(5-(3-fluoro-5-methoxyphenyl)pyridin-2-yl)-2-methylpropanamide]
IC50: 1000 to 10000 nM

COc1cc(OC)cc(-c2ccc(NC(=O)C(C)(C)c3csc(NS(=O)(=O)C4CC4)n3)nc2)c1 [T234, 2-(2-(cyclopropanesulfonamido)thiazol-4-yl)-N-(5-(3,5-dimethoxyphenyl)pyridin-2-yl)-2-methylpropanamide]
IC50: 1000 to 10000 nM

CC(C)(C(=O)Nc1ccc(-c2cccc(C(F)(F)F)c2)cn1)c1csc(NS(=O)(=O)C2CC2)n1 [T235, 2-(2-(cyclopropanesulfonamido)thiazol-4-yl)-2-methyl-N-(5-(3-(trifluoromethyl)phenyl)pyridin-2-yl)propanamide]
IC50: 100 to 1000 nM

CC(C)(C(=O)Nc1ccc(-c2cccc(OC(F)(F)F)c2)cn1)c1csc(NS(=O)(=O)C2CC2)n1 [T236, 2-(2-(cyclopropanesulfonamido)thiazol-4-yl)-2-methyl-N-(5-(3-(trifluoromethoxy)phenyl)pyridin-2-yl)propanamide]
IC50: 100 to 1000 nM

CC(C)(O)c1cccc(-c2ccc(NC(=O)C(C)(C)c3csc(NS(=O)(=O)C4CC4)n3)nc2)c1 [T237, 2-(2-(cyclopropanesulfonamido)thiazol-4-yl)-N-(5-(3-(2-hydroxypropan-2-yl)phenyl)pyridin-2-yl)-2-methylpropanamide]
IC50: 1000 to 10000 nM

CC(C)(C(=O)Nc1ccc(-c2cccc(N3CCOCC3)c2)cn1)c1csc(NS(=O)(=O)C2CC2)n1 [T238, 2-(2-(cyclopropanesulfonamido)thiazol-4-yl)-2-methyl-N-(5-(3-morpholinophenyl)pyridin-2-yl)propanamide]
IC50: 1000 to 10000 nM

CC(C)(C(=O)Nc1ccc(-c2ccccc2)nc1)c1csc(NS(=O)(=O)C2CC2)n1 [T239, 2-(2-(cyclopropanesulfonamido)thiazol-4-yl)-2-methyl-N-(6-phenylpyridin-3-yl)propanamide]
IC50: 100 to 1000 nM

CC(C)(C(=O)Nc1ccc(-c2cccnc2F)cc1)c1csc(NS(=O)(=O)C2CC2)n1 [T240, 2-(2-(cyclopropanesulfonamido)thiazol-4-yl)-N-(4-(2-fluoropyridin-3-yl)phenyl)-2-methylpropanamide]
IC50: 100 to 1000 nM

CC(C)(C(=O)Nc1ccc(-c2cncc(CO)c2)cc1)c1csc(NS(=O)(=O)C2CC2)n1 [T241, 2-(2-(cyclopropanesulfonamido)thiazol-4-yl)-N-(4-(5-(hydroxymethyl)pyridin-3-yl)phenyl)-2-methylpropanamide]
IC50: 100 to 1000 nM

COc1ncc(-c2ccc(NC(=O)Cc3csc(NS(=O)(=O)C4CC4)n3)cc2)cn1 [T242, 2-(2-(cyclopropanesulfonamido)thiazol-4-yl)-N-(4-(2-methoxypyrimidin-5-yl)phenyl)acetamide]
IC50: 1000 to 10000 nM

CC(C)(C)c1ccc(-c2ccc(NC(=O)Cc3csc(NS(=O)(=O)C4CC4)n3)cc2)cc1 [T243, N-(4′-(tert-butyl)-[1,1′-biphenyl]-4-yl)-2-(2-(cyclopropanesulfonamido)thiazol-4-yl)acetamide]
IC50: 1000 to 10000 nM

COc1ccccc1-c1ccc(NC(=O)Cc2csc(NS(=O)(=O)C3CC3)n2)cc1 [T246, 2-(2-(cyclopropanesulfonamido)thiazol-4-yl)-N-(2′-methoxy-[1,1′-biphenyl]-4-yl)acetamide]
IC50: 100 to 1000 nM

O=C(Cc1csc(NS(=O)(=O)C2CC2)n1)Nc1ccc(-c2cncnc2)cc1 [T247, 2-(2-(cyclopropanesulfonamido)thiazol-4-yl)-N-(4-(pyrimidin-5-yl)phenyl)acetamide]
IC50: 100 to 1000 nM

CC(C)(C(=O)Nc1ccc(-c2cccnc2C(F)(F)F)cc1)c1csc(NS(=O)(=O)C2CC2)n1 [T248, 2-(2-(cyclopropanesulfonamido)thiazol-4-yl)-2-methyl-N-(4-(2-(trifluoromethyl)pyridin-3-yl)phenyl)propanamide]
IC50: 1000 to 10000 nM

Cc1cncc(-c2ccc(NC(=O)C(C)(C)c3csc(NS(=O)(=O)C4CC4)n3)nc2)c1 [T249, 2-(2-(cyclopropanesulfonamido)thiazol-4-yl)-2-methyl-N-(5′-methyl-[3,3′-bipyridin]-6-yl)propanamide]
IC50: < 100 nM

COc1nccc(C)c1-c1ccc(NC(=O)C(C)(C)c2csc(NS(=O)(=O)C3CC3)n2)cc1 [T250, 2-(2-(cyclopropanesulfonamido)thiazol-4-yl)-N-(4-(2-methoxy-4-methylpyridin-3-yl)phenyl)-2-methylpropanamide]
IC50: 1000 to 10000 nM

COc1ncc(-c2ccc(NC(=O)C(C)(C)c3csc(NS(=O)(=O)C4CC4)n3)cc2)cc1C [T251, 2-(2-(cyclopropanesulfonamido)thiazol-4-yl)-N-(4-(6-methoxy-5-methylpyridin-3-yl)phenyl)-2-methylpropanamide]
IC50: 1000 to 10000 nM

CC(C)(C(=O)Nc1ccc(-c2cncc(Cl)c2)cc1)c1csc(NS(=O)(=O)C2CC2)n1 [T252, N-(4-(5-chloropyridin-3-yl)phenyl)-2-(2-(cyclopropanesulfonamido)thiazol-4-yl)-2-methylpropanamide]
IC50: < 100 nM

CC(C)(C(=O)Nc1ccc(-c2cncc(F)c2)cc1)c1csc(NS(=O)(=O)C2CC2)n1 [T253, 2-(2-(cyclopropanesulfonamido)thiazol-4-yl)-N-(4-(5-fluoropyridin-3-yl)phenyl)-2-methylpropanamide]
IC50: < 100 nM

Cc1ccncc1-c1ccc(NC(=O)C(C)(C)c2csc(NS(=O)(=O)C3CC3)n2)cc1 [T254, 2-(2-(cyclopropanesulfonamido)thiazol-4-yl)-2-methyl-N-(4-(4-methylpyridin-3-yl)phenyl)propanamide]
IC50: 100 to 1000 nM

CC(C)(C(=O)Nc1ccc(-c2cnccc2C(F)(F)F)cc1)c1csc(NS(=O)(=O)C2CC2)n1 [T255, 2-(2-(cyclopropanesulfonamido)thiazol-4-yl)-2-methyl-N-(4-(4-(trifluoromethyl)pyridin-3-yl)phenyl)propanamide]
IC50: 1000 to 10000 nM

COc1cc(-c2cncc(Cl)c2)ccc1NC(=O)C(C)(C)c1csc(NS(=O)(=O)C2CC2)n1 [T256, N-(4-(5-chloropyridin-3-yl)-2-methoxyphenyl)-2-(2-(cyclopropanesulfonamido)thiazol-4-yl)-2-methylpropanamide]
IC50: < 100 nM

CN(C)c1cncc(-c2ccc(NC(=O)C(C)(C)c3csc(NS(=O)(=O)C4CC4)n3)cc2)c1 [T257, 2-(2-(cyclopropanesulfonamido)thiazol-4-yl)-N-(4-(5-(dimethylamino)pyridin-3-yl)phenyl)-2-methylpropanamide]
IC50: 100 to 1000 nM

COc1cc(-c2cncc(C)c2)ccc1NC(=O)C(C)(C)c1csc(NS(=O)(=O)C2CC2)n1 [T258, 2-(2-(cyclopropanesulfonamido)thiazol-4-yl)-N-(2-methoxy-4-(5-methylpyridin-3-yl)phenyl)-2-methylpropanamide]
IC50: 100 to 1000 nM

COc1cc(-c2cncc(C(F)(F)F)c2)ccc1NC(=O)C(C)(C)c1csc(NS(=O)(=O)C2CC2)n1 [T259, 2-(2-(cyclopropanesulfonamido)thiazol-4-yl)-N-(2-methoxy-4-(5-(trifluoromethyl)pyridin-3-yl)phenyl)-2-methylpropanamide]
IC50: < 100 nM

COc1ccc(-c2ccc(NC(=O)Cc3csc(NS(=O)(=O)C4CC4)n3)cc2)cn1 [T260, 2-(2-(cyclopropanesulfonamido)thiazol-4-yl)-N-(4-(6-methoxypyridin-3-yl)phenyl)acetamide]
IC50: 1000 to 10000 nM

CC(C)(C(=O)Nc1ccc(-c2cncc(F)c2)cn1)c1csc(NS(=O)(=O)C2CC2)n1 [T261, 2-(2-(cyclopropanesulfonamido)thiazol-4-yl)-N-(5′-fluoro-[3,3′-bipyridin]-6-yl)-2-methylpropanamide]
IC50: < 100 nM

CC(C)(C(=O)Nc1ccc(-c2cncc(Cl)n2)cn1)c1csc(NS(=O)(=O)C2CC2)n1 [T262, N-(5-(6-chloropyrazin-2-yl)pyridin-2-yl)-2-(2-(cyclopropanesulfonamido)thiazol-4-yl)-2-methylpropanamide]
IC50: < 100 nM

CC(C)(C(=O)Nc1ccc(-c2cncc(C#N)n2)cn1)c1csc(NS(=O)(=O)C2CC2)n1 [T263, N-(5-(6-cyanopyrazin-2-yl)pyridin-2-yl)-2-(2-(cyclopropanesulfonamido)thiazol-4-yl)-2-methylpropanamide]
IC50: 1000 to 10000 nM
